Values of other authors as cited in patent publication US11224646B2, “Intranasal delivery of a cyclic-di-nucleotide adjuvanted vaccine for tuberculosis” (priority 2018, dated 2022).

How the values were obtained:
murine STING = biological target: T1, murine STING (Mus musculus, UniProt Q3TBT3)
T1 sequence (Q3TBT3 1-378): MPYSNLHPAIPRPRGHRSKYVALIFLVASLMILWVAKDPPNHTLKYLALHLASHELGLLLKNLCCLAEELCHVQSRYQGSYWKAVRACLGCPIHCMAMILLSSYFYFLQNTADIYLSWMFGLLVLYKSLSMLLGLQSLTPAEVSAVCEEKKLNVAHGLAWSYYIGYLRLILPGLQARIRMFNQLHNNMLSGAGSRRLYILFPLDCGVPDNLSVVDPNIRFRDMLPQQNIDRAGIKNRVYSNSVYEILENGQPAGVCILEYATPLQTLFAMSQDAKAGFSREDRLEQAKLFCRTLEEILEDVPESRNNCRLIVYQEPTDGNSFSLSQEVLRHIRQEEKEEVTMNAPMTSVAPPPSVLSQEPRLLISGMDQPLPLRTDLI

[1] = system: five common human STING alleles

SMILES | hydrolysis by phosphodiesterases (phosphodiesterases) | activation of murine STING (murine STING) | engagement / activation of the five common human STING alleles [1]
Nc1nc2c(ncn2[C@@H]2O[C@@H]3COP(=O)(S)O[C@H]4[C@@H](O)[C@H](n5cnc6c(N)ncnc65)O[C@@H]4CO[P@@](=O)(S)O[C@@H]2[C@@H]3O)c(=O)[nH]1 (stereo partly drawn) [ML-RR-cGAMP, dithio-[RP, RP]-cyclic-[G(2′,5′)pA(3′,5′)p]] | resistant to hydrolysis by phosphodiesterases |  | 
Nc1nc2c(ncn2[C@@H]2O[C@@H]3CO[P@@](=O)(S)O[C@H]4[C@@H](O)[C@H](n5cnc6c(=O)[nH]c(N)nc65)O[C@@H]4CO[P@@](=O)(S)O[C@H]3[C@H]2O)c(=O)[nH]1 [RR-CDG, dithio-[RP, RP]-cyclic-[G(3′,5′)pG(3′,5′)p]] |  | efficiently activates murine STING | does not engage all five common STING alleles
